Results reported in the NIST ThermoML archive (doi:10.1021/acs.jced.8b00157).
Where “and” joins values, the source holds several entries; their conditions need not be identical. Equal values may be shown once.

Assay: an = ratio of the nth substance listed
Details: 100 kPa, Liquid, Buoyancy - hydrostatic balance

[F][Al]([F])[F] [aluminum fluoride] + [F-].[K+]
Details | mass density
1123.5 K, a2 = 1.5 | 1749 kg/m3
1124 K, a2 = 1.5 | 1748 kg/m3
1124.4 K, a2 = 1.5 | 1748 kg/m3
1124.9 K, a2 = 1.5 | 1747 kg/m3
1125.1 K, a2 = 1.5 | 1747 kg/m3
1125.7 K, a2 = 1.5 | 1747 kg/m3
1126.2 K, a2 = 1.5 | 1747 kg/m3
1126.6 K, a2 = 1.5 | 1746 kg/m3
1127 K, a2 = 1.5 | 1746 kg/m3
1127.4 K, a2 = 1.5 | 1746 kg/m3
1127.8 K, a2 = 1.5 | 1745 kg/m3
1128.2 K, a2 = 1.5 | 1745 kg/m3
1128.6 K, a2 = 1.5 | 1745 kg/m3
1128.9 K, a2 = 1.5 | 1745 kg/m3
1129.6 K, a2 = 1.5 | 1744 kg/m3
1129.8 K, a2 = 1.5 | 1744 kg/m3
1130.3 K, a2 = 1.5 | 1743 kg/m3
1130.8 K, a2 = 1.5 | 1743 kg/m3
1131 K, a2 = 1.5 | 1743 kg/m3
1131.5 K, a2 = 1.5 | 1742 kg/m3
1132 K, a2 = 1.5 | 1742 kg/m3
1132.3 K, a2 = 1.5 | 1742 kg/m3
1132.7 K, a2 = 1.5 | 1742 kg/m3
1133.2 K, a2 = 1.5 | 1741 kg/m3
1133.6 K, a2 = 1.5 | 1741 kg/m3
1134 K, a2 = 1.5 | 1741 kg/m3
1134.3 K, a2 = 1.5 | 1740 kg/m3
1134.8 K, a2 = 1.5 | 1740 kg/m3
1135.2 K, a2 = 1.5 | 1740 kg/m3
1135.6 K, a2 = 1.5 | 1739 kg/m3
1136.1 K, a2 = 1.5 | 1739 kg/m3
1163.2 K, a2 = 1.7 | 1864 kg/m3
1163.3 K, a2 = 1.7 | 1864 kg/m3
1163.4 K, a2 = 1.7 | 1864 kg/m3
1163.6 K, a2 = 1.7 | 1863 kg/m3
1164.4 K, a2 = 1.7 | 1863 kg/m3
1165 K, a2 = 1.7 | 1864 kg/m3
1165.1 K, a2 = 1.7 | 1863 kg/m3
1165.3 K, a2 = 1.7 | 1862 kg/m3 and 1863 kg/m3
1165.4 K, a2 = 1.7 | 1863 kg/m3
1166.1 K, a2 = 1.7 | 1861 kg/m3
1166.2 K, a2 = 1.7 | 1861 kg/m3
1166.4 K, a2 = 1.7 | 1862 kg/m3
1166.6 K, a2 = 1.7 | 1862 kg/m3
1166.8 K, a2 = 1.7 | 1861 kg/m3
1167 K, a2 = 1.7 | 1860 kg/m3
1167.3 K, a2 = 1.7 | 1860 kg/m3 and 1861 kg/m3
1167.5 K, a2 = 1.7 | 1860 kg/m3
1167.6 K, a2 = 1.7 | 1861 kg/m3
1168.2 K, a2 = 1.7 | 1860 kg/m3
1168.6 K, a2 = 1.7 | 1859 kg/m3
1169.1 K, a2 = 1.7 | 1860 kg/m3 and 1859 kg/m3
1169.2 K, a2 = 1.7 | 1859 kg/m3
1169.4 K, a2 = 1.7 | 1858 kg/m3
1169.6 K, a2 = 1.7 | 1858 kg/m3
1169.7 K, a2 = 1.7 | 1858 kg/m3
1169.8 K, a2 = 1.7 | 1858 kg/m3
1170.3 K, a2 = 1.7 | 1857 kg/m3
1170.5 K, a2 = 1.7 | 1857 kg/m3
1170.6 K, a2 = 1.7 | 1857 kg/m3
1171.1 K, a2 = 1.7 | 1857 kg/m3
1172 K, a2 = 1.7 | 1856 kg/m3 and 1857 kg/m3
1172.2 K, a2 = 1.7 | 1855 kg/m3
1172.7 K, a2 = 1.7 | 1856 kg/m3
1173.3 K, a2 = 1.7 | 1856 kg/m3
1173.8 K, a2 = 1.7 | 1854 kg/m3
1174 K, a2 = 1.7 | 1855 kg/m3
1174.1 K, a2 = 1.7 | 1855 kg/m3 and 1854 kg/m3
1174.5 K, a2 = 1.7 | 1853 kg/m3
1174.6 K, a2 = 1.7 | 1854 kg/m3
1174.9 K, a2 = 1.7 | 1855 kg/m3
1175.1 K, a2 = 1.7 | 1852 kg/m3 and 1854 kg/m3
1175.4 K, a2 = 1.7 | 1854 kg/m3
1175.6 K, a2 = 1.7 | 1854 kg/m3
1175.8 K, a2 = 1.7 | 1853 kg/m3
1175.9 K, a2 = 1.7 | 1852 kg/m3
1176 K, a2 = 1.7 | 1852 kg/m3 and 1853 kg/m3
1176.8 K, a2 = 1.7 | 1851 kg/m3
1177.3 K, a2 = 1.7 | 1851 kg/m3
1177.5 K, a2 = 1.7 | 1852 kg/m3
1177.8 K, a2 = 1.7 | 1851 kg/m3
1177.9 K, a2 = 1.7 | 1852 kg/m3
1178.2 K, a2 = 1.7 | 1851 kg/m3
1178.3 K, a2 = 1.7 | 1851 kg/m3
1178.4 K, a2 = 1.7 | 1850 kg/m3
1179.5 K, a2 = 1.7 | 1849 kg/m3
1179.7 K, a2 = 1.7 | 1849 kg/m3
1179.8 K, a2 = 1.7 | 1850 kg/m3
1179.9 K, a2 = 1.7 | 1849 kg/m3
1180 K, a2 = 1.7 | 1850 kg/m3
1180.2 K, a2 = 1.7 | 1848 kg/m3
1180.4 K, a2 = 1.7 | 1849 kg/m3
1180.7 K, a2 = 1.7 | 1849 kg/m3
1181 K, a2 = 1.7 | 1848 kg/m3
1181.4 K, a2 = 1.7 | 1849 kg/m3
1181.5 K, a2 = 1.7 | 1848 kg/m3
1181.8 K, a2 = 1.7 | 1847 kg/m3
1182.4 K, a2 = 1.7 | 1846 kg/m3 and 1847 kg/m3 and 1848 kg/m3
1182.6 K, a2 = 1.7 | 1847 kg/m3
1182.7 K, a2 = 1.7 | 1847 kg/m3
1183.2 K, a2 = 1.7 | 1846 kg/m3
1183.6 K, a2 = 1.7 | 1846 kg/m3
1183.8 K, a2 = 1.7 | 1846 kg/m3
1184.2 K, a2 = 1.7 | 1846 kg/m3
1184.3 K, a2 = 1.7 | 1845 kg/m3
1184.6 K, a2 = 1.7 | 1846 kg/m3
1184.8 K, a2 = 1.7 | 1845 kg/m3
1184.9 K, a2 = 1.7 | 1845 kg/m3
1185.1 K, a2 = 1.7 | 1845 kg/m3
1185.4 K, a2 = 1.7 | 1844 kg/m3
1185.7 K, a2 = 1.7 | 1844 kg/m3
1186.3 K, a2 = 1.7 | 1843 kg/m3
1186.4 K, a2 = 1.7 | 1844 kg/m3
1186.5 K, a2 = 1.7 | 1844 kg/m3
1186.8 K, a2 = 1.7 | 1843 kg/m3
1186.9 K, a2 = 1.7 | 1843 kg/m3
1187.8 K, a2 = 1.7 | 1843 kg/m3 and 1842 kg/m3 and 1842 kg/m3
1188.1 K, a2 = 1.7 | 1842 kg/m3
